Read-outs that look alike come from different tables or passages of the source.
What was measured:
[1] = test system: LPS-induced NO production in N9 microglial cells; assay: LPS-induced NO production (Griess assay); type: cell-based, mouse; settings: for Nitrite: control 4.60, LPS group 31.81 μM; for Nitrite / inhibition at 25 µM / inhibition at 50 µM / % Inhibition of NO Production: mean ± S.E.M.; for inhibition at 25 µM / inhibition at 50 µM: Mus musculus
Procedure: Figure 2 Inhibitory effects of TBIII (A) and t-HL (B) in LPS-stimulated N9 microglial cells. Cells were pretreated with different concentrations of TBIII and t-HL 1 h prior to the addition of LPS (100 ng/mL) and were further incubated for 24 h. NO production was determined by using the Griess reagent. IC50 values and curve fitting were determined using Graphpad Prism (GraphPad, Avenida, CA, USA).
Accumulation of nitrite, a metabolite of NO in the culture media, was measured by Griess assay as previously reported. Briefly, cells were stimulated with 100 ng/mL of LPS for 24 h in the presence of the test compounds (0–50 μM).

[2] = in vitro; settings: mouse, % Cell Viability
Procedure: (§1) The N9 microglial cell line was obtained from China Cell Line Bank. The cells were grown at 37 °C in IMDM supplemented with 10% heat-inactivated FBS under a humidified atmosphere of 5% CO2. In this experiment, cells were allowed to acclimate for 24 h before treatments.
(§2) Cell viability was evaluated by the MTT reduction assay [36]. Cells were seeded in 96-well plates at a density of 2 × 10^4 cells/well and allowed to grow for 24 h before treatments. Thereafter, 100 μL medium containing various concentrations (0–50 μM) of compounds were added and incubated for another 24 h. MTT was dissolved in DD water (5 mg/mL) and 10 μL were added to each well. After 4 h, the medium was removed and 100 μL DMSO were filled in each well. The optical density was measured at 490 nm on a Flexstation 3 (Molecular Devices, Silicon Valley, CA, USA).

[3] = MTT assay for cell viability; settings: mouse, N9 microglial cells, % Cell Viability, 24 h, MTT, mean ± S.E.M.; for viability at 24 h, 25 µM: 25 μM compound; for viability at 24 h, 50 µM: 50 μM compound
Procedure: as §1, §2

[4] = test system: N9 microglial cells
Procedure: as §1, §2

[5] = 25 μM compound, LPS 100 ng/mL, 24 h
[6] = 50 μM compound, LPS 100 ng/mL, 24 h
[7] = N9, 24 h, read-out: % Inhibition of NO Production, 25 μM compound, LPS 100 ng/mL, 24 h
[8] = N9, 24 h, read-out: % Inhibition of NO Production, 50 μM compound, LPS 100 ng/mL, 24 h
[9] = N9, 24 h, 25 μM compound, LPS 100 ng/mL, 24 h, read-out: % Inhibition of NO Production
[10] = N9, 24 h, 50 μM compound, LPS 100 ng/mL, 24 h, read-out: % Inhibition of NO Production
[11] = 25 μM compound, LPS 100 ng/mL, 24 h, 25 µM
[12] = 50 μM compound, LPS 100 ng/mL, 24 h, 50 µM
[13] = N9, 25 μM compound, LPS 100 ng/mL, 24 h, read-out: % Inhibition of NO Production
[14] = N9, 50 μM compound, LPS 100 ng/mL, 24 h, read-out: % Inhibition of NO Production

SMILES	Nitrite [1, 5] [µM]	Nitrite [1, 6] [µM]	inhibition at 25 µM [1, 9] [%]	inhibition at 50 µM [1, 10] [%]	viability at 24 h, 25 µM [3] [%]	viability at 24 h, 50 µM [3] [%]	further results
CC1=C(CCC(C)COC2OC(CO)C(O)C(O)C2O)OC2CC3C4CCC5CC(OC6OC(CO)C(O)C(O)C6OC6OC(CO)C(O)C(O)C6O)C(O)CC5(C)C4CCC3(C)C12 (stereo not drawn) [Compound 10, Timosaponin D]	29.22 ± 0.60	20.78 ± 2.00					inhibition at 25 µM [1, 7]: 8.57 ± 1.87%; inhibition at 50 µM [1, 8]: 34.8 ± 6.27%; viability at 24 h, 25 µM [2]: 111 ± 4.39%; viability at 24 h, 50 µM [2]: 110 ± 2.57%
CCC1C(OC(=O)CCC(C)COC2OC(CO)C(O)C(O)C2O)CC2C3CCC4CC(OC5OC(CO)C(O)C(O)C5OC5OC(CO)C(O)C(O)C5O)CCC4(C)C3CCC12C (stereo not drawn) [Compound 19, Anemarnoside A]	23.63 ± 1.13	9.83 ± 0.30					inhibition at 25 µM [1, 7]: 25.2 ± 8.72%; inhibition at 50 µM [1, 8]: 66.9 ± 2.82%; viability at 24 h, 25 µM [2]: 124 ± 3.13%; viability at 24 h, 50 µM [2]: 126 ± 3%
O=C(c1ccc(O)cc1)c1c(O)cc(O)cc1O [Compound 3, Iriflophene]	26.06 ± 1.24	20.41 ± 0.38	18.1 ± 3.88	35.9 ± 1.2	107 ± 3.62	113 ± 5.32	
C=CCOC1O[C@H](CO)[C@@H](O)[C@H](O)[C@H]1O (stereo in doubt) [Compound 26, α-D-Glucose monoallyl ether]	29.57 ± 0.71	22.60 ± 2.19	7.13 ± 2.23	29 ± 8.43	107.2 ± 0.63	105 ± 16.1	
COc1cc(O)c(C(=O)c2ccc(O)cc2)c(O)c1 [Compound 1, 2,6,4′-trihydroxy-4-methoxybenzophenone]	26.78 ± 1.27	19.29 ± 0.10	15.3 ± 9.4	41.7 ± 3.9	98.7 ± 8.27	97.5 ± 1.85	
CC1=C(CCC(C)COC2OC(CO)C(O)C(O)C2O)OC2CC3C4CCC5CC(OC6OC(CO)C(O)C(O)C6OC6OC(CO)C(O)C(O)C6O)CCC5(C)C4CCC3(C)C12 (stereo not drawn) [Compound 13, Timosaponin C]	24.24 ± 1.32	13.36 ± 0.56					% Inhibition of NO Production [1, 11]: 23.94 ± 4.13%; % Inhibition of NO Production [1, 12]: 58.10 ± 1.75 %; inhibitory activity on NO production (in words) ([1]; compared with compound 11): much weaker inhibitory activity; % Cell Viability ([4]; mouse, 24 h, 25 µM): 109.04 ± 4.85%; % Cell Viability ([4]; mouse, 24 h, 50 µM): 97.19 ± 6.46%
O=c1cc(-c2ccc(O)cc2)oc2cc(O)c([C@@H]3O[C@H](CO)[C@@H](O)[C@H](O)[C@H]3O)c(O)c12 [Compound 20, Isovitexin]	28.39 ± 0.07	22.82 ± 0.27	10.2 ± 4.73	29.8 ± 0.6	135 ± 11.8	95.7 ± 2.75	
C[C@@H]1O[C@@H](O[C@H]2[C@H](OC(=O)[C@]34CCC(C)(C)C[C@H]3C3=CC[C@@H]5[C@@]6(C)C[C@H](O)[C@H](O[C@@H]7O[C@H](CO)[C@@H](O)[C@H](O[C@@H]8O[C@H](CO)[C@@H](O)[C@H](O)[C@H]8O)[C@H]7O)C(CO)(CO)[C@@H]6CC[C@@]5(C)[C@]3(C)C[C@H]4O)OC[C@H](O)[C@@H]2O)[C@H](O)[C@H](O)[C@H]1O[C@@H]1OC[C@@H](O)[C@H](O[C@@H]2OC[C@](O)(CO)[C@H]2O)[C@H]1O [Compound 16, Platycodin D2]	33.68 ± 1.44	24.94 ± 0.45	-5.78 ± 4.51	21.7 ± 1.4	114 ± 4.62	101 ± 1.83	
C[C@@H]1O[C@@H](O[C@H]2[C@H](OC(=O)[C@]34CCC(C)(C)C[C@H]3C3=CC[C@@H]5[C@@]6(C)C[C@H](O)[C@H](O[C@@H]7O[C@H](CO)[C@@H](O)[C@H](O[C@@H]8O[C@H](CO)[C@@H](O)[C@H](O)[C@H]8O)[C@H]7O)[C@@](C)(CO)[C@@H]6CC[C@@]5(C)[C@]3(C)C[C@H]4O)OC[C@H](O)[C@@H]2O)[C@H](O)[C@H](O)[C@H]1O[C@@H]1OC[C@@H](O)[C@H](O[C@@H]2OC[C@](O)(CO)[C@H]2O)[C@H]1O [Compound 17, Polygalacin D2]	31.14 ± 0.78	26.21 ± 0.82	2.25 ± 2.46	17.7 ± 3.14	97.5 ± 1.83	88 ± 8.92	
COc1ccc(C(=O)c2ccc(O)cc2)c(OC2OC(CO)C(O)C(O)C2O)c1O (stereo not drawn) [Compound 2, Zimoside A]	26.64 ± 1.13	21.41 ± 0.92	16.3 ± 3.55	32.8 ± 2.88	97.2 ± 3.27	94.6 ± 5.47	
Nc1ncnc2c1ncn2[C@@H]1O[C@H](CO)[C@@H](O)[C@H]1O [Compound 25, Adenosine]	27.43 ± 1.35	20.69 ± 1.74	13.9 ± 4.23	35.1 ± 5.47	81.6 ± 1.26	80.5 ± 6.19	
COC1(CCC(C)COC2OC(CO)C(O)C(O)C2O)OC2CC3C4CC=C5CC(O)CC(OC6OC(C)C(O)C(OC7OCC(O)C(O)C7O)C6OC6OC(CO)C(O)C(O)C6O)C5(C)C4CCC3(C)C2C1C (stereo not drawn) [Compound 9, Spicatoside B]	34.46 ± 0.41	24.20 ± 0.29					inhibition at 25 µM [1, 7]: -8.22 ± 1.3%; inhibition at 50 µM [1, 8]: 24 ± 0.9%; viability at 24 h, 25 µM [2]: 99.7 ± 3.13%; viability at 24 h, 50 µM [2]: 94.3 ± 3.21%
CC1=C(CCC(C)COC2OC(CO)C(O)C(O)C2O)OC2CC3C4CCC5CC(OC6OC(CO)C(O)C(O)C6OC6OC(CO)C(O)C(O)C6O)CCC5(C)C4CCC3(C)C12 (stereo not drawn) [Compound 12, Macrostemonoside F]	19.64 ± 1.21	11.82 ± 1.03					% Inhibition of NO Production [1, 11]: 38.33 ± 3.80 %; % Inhibition of NO Production [1, 12]: 62.89 ± 3.22 %; % Cell Viability ([4]; mouse, 24 h, 25 µM): 104.74 ± 3.16%; % Cell Viability ([4]; mouse, 24 h, 50 µM): 105.77 ± 2.84%
O=c1cc(-c2ccc(O)cc2)oc2c([C@@H]3O[C@H](CO)[C@@H](O)[C@H](O)[C@H]3O)c(O)cc(O)c12 [Compound 21, Vitexin]	28.88 ± 1.38	17.81 ± 1.13			90.5 ± 2.51	81.8 ± 4.38	inhibition at 25 µM [1, 13]: 9.39 ± 4.33%; inhibition at 50 µM [1, 14]: 44.1 ± 3.56%
CC(C)CCC1(O)OC2C(O)C3C4CCC5CC(OC6OC(CO)C(O)C(O)C6OC6OC(CO)C(O)C(O)C6O)CCC5(C)C4CCC3(C)C2C1C (stereo not drawn) [Compound 5, Anemarrhenasaponin I]	29.82 ± 0.24	19.14 ± 0.59					% Inhibition of NO Production [1, 11]: 6.36 ± 0.76 %; % Inhibition of NO Production [1, 12]: 39.90 ± 1.85 %; cytotoxicity against N9 microglial cells (in words) [4]: not; % Cell Viability ([4]; mouse, 24 h, 25 µM): 110.42 ± 4.67%; % Cell Viability ([4]; mouse, 24 h, 50 µM): 115.47 ± 6.83%
N[C@@H](Cc1c[nH]c2ccccc12)C(=O)O [Compound 24, Tryptophan]	30.49 ± 0.93	24.19 ± 0.72			105 ± 6.13	92.4 ± 8.71	inhibition at 25 µM [1, 7]: 4.24 ± 2.92%; inhibition at 50 µM [1, 8]: 24 ± 2.27%
CC(C)CCC1(O)OC2C(O)C3C4CCC5CC(OC6OC(CO)C(O)C(O)C6OC6OC(CO)C(O)C(O)C6O)CCC5(C)C4CCC3(C)C2C1C (stereo not drawn) [Compound 4, Anemarrhenasaponin II]	9.52 ± 0.84	3.80 ± 0.53					% Inhibition of NO Production [1, 12]: 87.98 ± 2.99 %; cytotoxicity against N9 microglial cells (in words) [4]: potent cytotoxicity; cell viability reduced to ([4]; mouse, 24 h): ≤ 60%; % Cell Viability ([4]; mouse, 24 h, 25 µM): 63.92 ± 5.98 %; % Cell Viability ([4]; mouse, 24 h, 50 µM): 8.57 ± 0.11 %
CC(CCC1(O)OC2CC3C4CCC5CC(OC6OC(CO)C(O)C(O)C6OC6OC(CO)C(O)C(O)C6O)CCC5(C)C4CCC3(C)C2C1C)COC1OC(CO)C(O)C(O)C1O (stereo not drawn) [Compound 6, Anemarnoside B]	40.89 ± 2.04	26.38 ± 2.63			115 ± 5.52	104 ± 16.5	inhibition at 25 µM [1, 7]: -28.3 ± 6.4%; inhibition at 50 µM [1, 8]: 17.2 ± 8.26%
CC(CCC1(O)OC2CC3C4CCC5CC(OC6OC(CO)C(OC7OC(CO)C(O)C(OC8OCC(O)C(O)C8O)C7OC7OC(CO)C(O)C(O)C7O)C(O)C6O)C(O)CC5(C)C4CCC3(C)C2C1C)COC1OC(CO)C(O)C(O)C1O (stereo not drawn) [Compound 7, Hostaplantagineoside C]	32.76 ± 0.85	23.52 ± 0.37			84.9 ± 1.82	79.7 ± 6.03	inhibition at 25 µM [1, 13]: -3.57 ± 8.75%; inhibition at 50 µM [1, 14]: 25.8 ± 2.4%

Source: article PMC6222787, “Anti-Inflammatory Activities of Compounds Isolated from the Rhizome of Anemarrhena asphodeloides” (Molecules : A Journal of Synthetic Chemistry and Natural …, 2018)
